Experiments:
Format in all cases: cell-based
[1] = tested on: isolated rat soleus muscles; test: Recovery of nerve-stimulated force in isolated rat soleus muscles exposed to sub-maximal tubocurarine; conditions: 9-AC added after tubocurarine; nerve stimulation by suction electrode, 60 Hz
Method: (§1) Experiments were performed using rat soleus muscles from either young (4-wk-old) or adult Wistar rats (12-14-week-old). Animal handling, killing and isolation of muscle is described elsewhere All experiments were performed using normal Krebs-Ringer bicarbonate solution (NKR). In solutions with elevated Mg^2+, MgCl2 was added to NKR-solution causing minor increases in osmolarity and ionic strength. In solutions with elevated K^+, 4 mM NaCl was replaced by 4 mM KCl in the NKR.
In all contraction experiments, isometric force production was determined and force produced during contractions was quantified by measuring the integral of the force response (AUC). Stimulation and force recordings have been described elsewhere. […] In these latter experiments, extracellular recordings of action potentials (M-waves) could be measured without temporal overlap with stimulation artefacts.
(§2) The aim was to find compounds that by inhibition of CIC-1 channels can recover nerve-stimulated force under conditions of fatigue including conditions where fatigue is caused by compromised neuromuscular transmission. Neuromuscular transmission dysfunction can develop because of both pre- and/or post-synaptic complications in connection with a disorder or as part of neuromuscular blockade during/after surgery. In the initial series of drug testing, experiments were performed with isolated muscles in the presence of sub-maximal ACh receptor antagonist tubocurarine. Since the inclusion of tubocurarine caused a partial loss of neuromuscular transmission this experiment mimics the conditions in myasthenia gravis and neuromuscular blockade. To mimic conditions with pre-synaptic complication (Lambert Eaton syndrome, motor neuron disorder, polyneuropathy) the intact nerve-muscle preparations were incubated at elevated extracellular Mg^2+, which is known to suppress release of ACh from nerve terminals of motor neurons.
The experiments also illustrate that field stimulation of the entire nerve-muscle preparation selectively activates the motor nerve when short-duration pulses (0.02 vs 0.2 ms) were used. In FIG. 1A the preparation was stimulated either via field stimulation or via nerve-stimulation using a suction electrode. With the suction electrode only the nerve could be stimulated. When exposed to a submaximal concentration of the ACh receptor antagonist tubocurarine (0.2 μM) a clear drop in peak force and a further decline (or fade) in force during the stimulation developed. This drop in force clearly reflected compromised neuromuscular transmission, as the decline in peak force and fading were not seen with direct stimulation of the muscle. […] Thus, loss of M-wave and force with tubocurarine reflected partial blockade of neuromuscular function. Such fading of force and M-waves during stimulation represent clinical hallmarks of both myasthenia gravis and neuromuscular blockade in connection with surgery. In FIG. 1B, observations with normal (0.2 ms) and short-duration (0.02 ms) pulses have been compared. It can be seen that only with short-duration pulses did tubocurarine cause a decline in peak force and fading (FIG. 1B). This confirms that short-duration pulses in field stimulation could be used as specific nerve-stimulation. […] Elevated extracellular Mg^2+ could thus be used to partially block neuromuscular transmission and thus be used as a model of conditions with compromised pre-synaptic function (Lambert Eaton syndrome, amyotrophic lateral sclerosis, spinal muscular atrophy). […]

[2] = tested on: isolated rat soleus muscles; test: Recovery of nerve-stimulated force in isolated rat soleus muscles exposed to 3.5 mM Mg2+; conditions: 9-AC added at 3.5 mM Mg2+; nerve stimulation by suction electrode, 60 Hz
Method: as §1
as §2, with “Since the inclusion of tubocurarine caused a partial loss of neuromuscular transmission this experiment mimics the conditions in myasthenia gravis and neuromuscular blockade.” left out

isolated rat muscle = test: Measurement of force in an in vitro model: isolated rat soleus nerve-muscle preparation, 115 nM tubocurarine; conditions: 50 μM compound after 90 min in tubocurarine
Method: FIGS. 12A-12B. […] Force traces from a representative muscle stimulated to contract in 1) control condition before addition of neuromuscular blocking agent, 2) the force response to stimulation after 90 minutes incubation with Tubocurarine. […] The traces presented in FIG. 12A (1, 2, 3), correspond to the dotted lines in FIG. 12B, respectively.
Recovery of force is quantified as the percentage of the force prior to tubocurarine that is recovered by the compound.
The current invention relates to compounds that inhibit CIC-1 ion channels and increase muscle excitability and thereby improve muscle function in clinical conditions where muscle activation is failing. Such conditions result in loss of contractile function of skeletal muscle, weakness and excessive fatigue. […]
Experimentally, soleus muscles from 4-5 wk old rats were isolated with the motor nerve remaining attached. […] Stimulation of the motor nerve led to activation of the muscle fibres and ensuing force production that was recorded.
After mounting the nerve-muscle preparation in the experimental setup, the contractile function of the muscle was initially assessed under the control conditions (FIG. 2A). […] To quantify the ability of the compound to restore force the percentage of the initial force that was restored was determined after 40 mins of compound exposure (FIG. 2B) and the point increase is reported in Table 8.

| SMILES | recovery of force and M-wave signal [1] | recovery of force and M-wave signal [2] | recovery of force (in words) (isolated rat muscle) |
| --- | --- | --- | --- |
| O=C(O)c1c2ccccc2cc2ccccc12 [Compound 9-AC, 9-anthracenecarboxylic acid, reference compound] | marked recovery of both force and M-wave signal | marked recovery of both force and M-wave signal |  |
| O=C(O)[C@H](CF)Oc1ccc(Br)cc1F [Compound A-19, (2R)-2-(4-bromo-2-fluorophenoxy)-3-fluoropropanoic acid] |  |  | subsequently recovered |

Reference: patent US11730714B2, “Compounds for the treatment of neuromuscular disorders” (NMD PHARMA A/S, priority 2017, dated 2023)
